# Assay results: article PMC7811517, “Human neuronal signaling and communication assays to assess functional neurotoxicity” (Archives of Toxicology, 2020)
# Several values for one entry are separate records, joined by “and”; a condition that tells them apart may be missing. Identical values can stand only once. Entries after “also recorded” stand apart in the source; their conditions may differ. Like-named read-outs stand apart in the source and are kept apart here.
# Tests used:
# NaV channels [1] = assay: Automated patch clamp recordings (QPatch) of NaV channel currents in LUHMES neurons; type: cell-based, human
# rat hippocampal neurons = details: cited from earlier work
# P2X receptors [2] = assay: Ca2+-imaging of LUHMES neurons, P2 receptor agonist responses; type: cell-based, human; details: for pEC50 in Ca2+-imaging: LUHMES neurons, agonist concentration-response
# Experimental: (§1) The signals of individual cells could not be captured. […] The total recording never exceeded 8 min.
# (Ritz et al. [2015]). The logarithm of the half-maximal effective concentration (logEC50) between 0 and the upper limit (d), which was set to 1, is represented by ẽ, x denotes the concentration and b stands for the slope parameter (Ritz et al. [2015]).
# LUHMES neurons [3] = assay: Manual patch clamp recordings of LUHMES neurons; type: cell-based, human
# Description: Manual patch clamp was executed with an EPC 10 USB patch clamp amplifier and PatchMaster Software (version 2 × 90.5; HEKA Elektronik, Lambrecht, Germany). […] Intracellular solution contained [mM]: 107 K-gluconate, 10 KCl, 1 MgCl2, 10 HEPES, 5 EGTA, 4 Na2ATP and 0.2 NaGTP, pH 7.20. Recordings were obtained at room temperature. The cells were kept at a holding potential of − 70 mV. In voltage clamp mode NaV and voltage-gated potassium (KV) channels were activated for 300 ms by voltage pulses ranging from − 70 to + 70 mV in + 10 mV steps after a hyperpolarizing step to − 120 mV for 200 ms. To investigate the firing behavior, cells were stimulated in current clamp mode by hyper- and depolarizing current pulses of 300 ms duration. The pulse protocol was executed at 0.2 Hz. For agonist tests in current clamp and voltage clamp mode, cells were kept at a holding potential of − 70 mV and the compounds were applied for 5 s.
# The raw data of the manual patch clamp recordings were analyzed in scripts written in R. For leak subtraction, the P/4 algorithms of PatchMaster and QPatch Software were used in the voltage clamp recordings for manual and automated patch clamp experiments, respectively.
# P2X receptors [4] = assay: Ca2+-imaging of LUHMES neurons, P2X receptor antagonists against ATP or α,β-meATP response; type: cell-based, human; details: for pIC50 on the response triggered by ATP: 1 µM ATP (~EC75)
# Experimental: as §1
# (§2) (Ritz et al. [2015]). […].
# NaV channels [5] = assay: Ca2+-imaging of LUHMES neurons, NaV channel toxicants; type: cell-based, human
# Experimental: as §1, §2
# [6] = target: dopamine transporter (DAT) (Homo sapiens, UniProt Q01959); type: cell-based
# Experimental: LUHMES cells were differentiated for 6 days in a 24-well format and then treated with the indicated DAT inhibitors. […] After 10 min at 37 °C, the supernatant was removed and cells were washed with PBS. Then lysis buffer was added (PBS containing 0.2% Triton X-100). The amount of radioactive label taken up by the cells as well as the residual activity in the cell supernatant (plus washing buffer) was measured on a scintillation counter.
# NaV1.7 = details: ref McCormack et al. [2013]; cited from earlier work
# NaV1.6 = details: ref McCormack et al. [2013]; cited from earlier work
# NaV1.2 = details: ref McCormack et al. [2013]; cited from earlier work
# NaV1.3 = details: ref McCormack et al. [2013]; cited from earlier work
# NaV1.1 = details: ref McCormack et al. [2013]; cited from earlier work
# LUHMES neurons [7] = type: cell-based, human
# Experimental: as §1
# mice = details: mouse, in vivo; cited from earlier work
# human P2X3 receptors = details: ref Garcia-Guzman et al. [1997]; cited from earlier work
# [8] = 1 µM DA and 0.3 µM AMP, NNC 55–0396 30 µM
# Sequence of dopamine transporter (DAT) (Q01959 whole entry): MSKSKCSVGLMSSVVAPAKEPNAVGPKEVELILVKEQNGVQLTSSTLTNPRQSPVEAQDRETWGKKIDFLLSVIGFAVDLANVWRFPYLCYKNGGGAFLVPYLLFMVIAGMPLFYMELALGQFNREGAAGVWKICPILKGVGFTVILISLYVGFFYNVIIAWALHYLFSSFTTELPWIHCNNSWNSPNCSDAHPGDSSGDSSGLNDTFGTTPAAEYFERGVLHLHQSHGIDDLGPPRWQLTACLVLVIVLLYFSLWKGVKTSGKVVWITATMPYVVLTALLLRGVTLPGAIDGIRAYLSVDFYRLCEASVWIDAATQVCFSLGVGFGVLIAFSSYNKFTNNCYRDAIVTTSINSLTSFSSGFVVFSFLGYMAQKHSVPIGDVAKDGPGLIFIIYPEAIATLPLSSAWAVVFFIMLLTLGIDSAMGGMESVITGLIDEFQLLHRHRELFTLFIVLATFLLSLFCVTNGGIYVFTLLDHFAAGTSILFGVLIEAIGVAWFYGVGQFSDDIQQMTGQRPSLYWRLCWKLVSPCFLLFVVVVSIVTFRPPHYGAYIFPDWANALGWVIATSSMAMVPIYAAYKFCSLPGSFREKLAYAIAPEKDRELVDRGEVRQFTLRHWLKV
molecule,measurement,setting,value
"CCN(CC)CC(=O)Nc1c(C)cccc1C [Lidocaine, lidocaine]","pIC50, NaV current, 1st pulse",NaV channels [1],3.03 ± 0.07
same,"pIC50, NaV current, 10th pulse",NaV channels [1],3.57 ± 0.06
same,pIC50 in rat hippocampal neurons,rat hippocampal neurons,~ 3.4
"Nc1ncnc2c1ncn2[C@@H]1O[C@H](COP(=O)(O)OP(=O)(O)OP(=O)(O)O)[C@@H](O)[C@H]1O [ATP, Adenosine 5'-triphosphate]",pEC50 in Ca2+-imaging,P2X receptors [2],7.35 ± 0.08
same,half-life of the fast decrease of the fluorescence signal,P2X receptors [2]; at 100 µM ATP,~ 8 s
same,response to agonist application,"LUHMES neurons [3]; 100 µM ATP for 5 s, current clamp",triggered action potential firing
"Nc1ncnc2c1ncn2[C@@H]1O[C@H](COP(=O)(O)OP(=O)(O)OP(=O)(O)O)[C@H]2OC3(O[C@H]21)C([N+](=O)[O-])=CC(=[N+]([O-])[O-])C=C3[N+](=O)[O-] (some centres unmarked) [TNP-ATP, 2′,3′-O-(2,4,6-trinitrophenyl) adenosine 5′-triphosphate]","pIC50 on the response triggered by α,β-meATP","P2X receptors [4]; 0.1 µM α,β-meATP (~EC75)",7.5
same,pIC50 on the response triggered by ATP,P2X receptors [4],6.1 and 6.05 ± 0.06
microcystin-LF,effect alone in Ca2+-imaging,NaV channels [5],no significate effect; also recorded: did not show any effects
same,effect on the response to 3 µM VTD,NaV channels [5],no significate effect; also recorded: did not show any effects
O=C(O)c1cc(C(=O)O)c(C(=O)N(Cc2cccc(Oc3ccccc3)c2)[C@H]2CCCc3ccccc32)cc1C(=O)O [A-317491],block of the response of ATP,P2X receptors [4],up to 40%
same,effect on ATP signals,P2X receptors [4],only a weak partial effect
same,"effect on the response to α,β-meATP",P2X receptors [4],potently and completely blocked
same,"pIC50 on the response triggered by α,β-meATP",P2X receptors [4],6.31 ± 0.05
COC(=O)[C@H]1[C@@H](OC(=O)c2ccccc2)C[C@@H]2CC[C@H]1N2C [cocaine],effect on uptake of [3H]DA,[6],inhibited; also recorded: significantly reduced
O=C(Nc1ccc(S(=O)(=O)Nc2nccs2)cc1)C(c1ccccc1)c1ccccc1 [ICA-121431],IC50,NaV1.7,10 µM
same,IC50,NaV1.6,13 µM
same,IC50,NaV1.2,240 nM
same,IC50,NaV1.3,13 nM
same,"pIC50, NaV current with 50% of channels inactivated",NaV channels [1]; prepulse to −55 mV,6.33 ± 0.10 and 6.3
same,IC50,NaV1.1,23 nM
CN1Cc2c(N)cccc2C(c2ccccc2)C1 (centres unmarked) [nomifensine],effect on oscillations induced by AMP and DA,LUHMES neurons [7],blocked
COC(=O)C1=C(C)NC(C)=C(C(=O)OC)C1c1ccccc1[N+](=O)[O-] [nifedipine],"signal amplitude compared to control, response to AMP",LUHMES neurons [7],51% and 51.4 ± 0.03%
same,"signal amplitude compared to control, response to DA",LUHMES neurons [7],70% and 70.2 ± 0.05%
"C[C@@H]1C[C@@H]2O[C@@H]3[C@@H](C)[C@H](O)[C@@H]4O[C@@]5(CCCO5)[C@@H](C)[C@H](C)[C@H]4O[C@H]3C[C@H]2O[C@H]2C[C@H]3O[C@H]4C/C=C\C[C@H]5O[C@H]6C=C[C@H]7O[C@H]8[C@H](O)[C@H]9O[C@@H](/C=C/[C@H](O)CO)C=CC[C@@H]9O[C@@H]8C[C@@H]7O[C@@H]6C=C[C@@H]5O[C@@H]4C[C@@H](O)[C@]3(C)O[C@@H]2C1 [pCTX-2, pacific ciguatoxin-2]",acute toxicity (mice),mice,2.3 µg/kg
same,amplitude of the evoked response,NaV channels [5],1779 ± 50 AU
same,effect compared to control,NaV channels [5],no effect
same,effect on [Ca2+]i / Ca2+-imaging signal,NaV channels [5],induced an increase of the baseline and oscillations; also recorded: increased [Ca^2+]i
same,effect on the amplitude induced by 3 µM VTD,NaV channels [5],significantly reduced
"Nc1ncnc2c1ncn2[C@@H]1O[C@H](COP(=O)(O)CP(=O)(O)OP(=O)(O)O)[C@@H](O)[C@H]1O [α,β-meATP]",pEC50 in Ca2+-imaging,P2X receptors [2],7.52 ± 0.03 and 7.5
same,"pEC50, amplitude normalized to K+ amplitude","P2X receptors [2]; normalized to 30 mM K+ application, 5 differentiations",7.58 ± 0.04
Nc1ncnc2c1ncn2[C@@H]1O[C@H](COP(=O)(O)OP(=O)(O)OP(=O)(O)O)[C@@H](OC(=O)c2ccc(C(=O)c3ccccc3)cc2)[C@H]1O [BzATP],pEC50 in Ca2+-imaging,P2X receptors [2],7.76 ± 0.11
"NCCc1ccc(O)c(O)c1 [DA, dopamine]",main oscillation frequency,LUHMES neurons [7],0.201 ± 0.002 Hz and 0.2–0.23 Hz
same,recordings with oscillations of the Ca2+-imaging signal,LUHMES neurons [7],61.6% and 62%
"NC1=N[C@H](O)[C@H]2[C@H]3O[C@]4(O)O[C@@H]([C@@H](O)[C@@]2(N1)[C@@H]4O)[C@]3(O)CO [TTX, tetrodotoxin]","pIC50, NaV current (pulse not specified)",NaV channels [1],~ 7.2
same,"pIC50, NaV current, 1st pulse",NaV channels [1],7.23 ± 0.05
same,"pIC50, NaV current, 10th pulse",NaV channels [1],7.26 ± 0.05
same,"signal amplitude compared to control, response to AMP",LUHMES neurons [7],21% and 20.5 ± 0.02%
same,"signal amplitude compared to control, response to DA",LUHMES neurons [7],69% and 68.6 ± 0.06%
same,pIC50 on the response triggered by VTD,NaV channels [5],7.9 and 7.93 ± 0.06
same,effect on rapid transient inward currents,LUHMES neurons [3],blocked
"COc1ccc(C(=O)O[C@H]2CC[C@@]3(C)[C@@H]4CC[C@H]5[C@]6(O)C[C@H](O)[C@@]7(O)[C@@H](CN8C[C@@H](C)CC[C@H]8[C@@]7(C)O)[C@]6(O)C[C@@]53O[C@]24O)cc1OC [VTD, veratridine]","pEC50, rise of [Ca2+]i",NaV channels [5]; LUHMES neurons,5.4 and 5.38 ± 0.03
same,effect on action potential duration,"LUHMES neurons [3]; 1 µM VTD, current clamp, n = 4",reversibly increased the action potential duration
"CC(N)Cc1ccccc1 (centres unmarked) [AMP, amphetamine]",effect on uptake of [3H]DA,[6],inhibited; also recorded: significantly reduced
same,main oscillation frequency,"LUHMES neurons [7]; 1 µM DA (n = 6), 0.3 µM AMP (n = 10), FFT analysis",0.234 ± 0.007 Hz and 0.2–0.23 Hz
same,recordings with oscillations of the Ca2+-imaging signal,"LUHMES neurons [7]; 1 µM DA (n = 125), 0.3 µM AMP (n = 50)",94.0%
"CC(C)[C@H]1c2ccc(F)cc2CC[C@@]1(CCN(C)CCCc1nc2ccccc2[nH]1)OC(=O)C1CC1.Cl.Cl [NNC 55–0396, (1S,2S)-2-(2-(N-[(3-benzimidazol-2-yl)propyl]-N-methylamino)ethyl)-6-fluoro-1,2,3,4-tetrahydro-1-isopropyl-2-naphtyl cyclopropanecarboxylate dihydrochloride]","signal amplitude compared to control, response to AMP",LUHMES neurons [7],2.1 ± 0.02%
same,"signal amplitude compared to control, response to DA",LUHMES neurons [7],3.0 ± 0.02%
same,"inhibition of amplitude, DA/AMP induced oscillations",LUHMES neurons [7]; [8],> 95%
same,"signal amplitude compared to control, DA/AMP induced oscillations",LUHMES neurons [7]; [8],2–3%
Cc1ccc(C(=O)Nc2ccc(S(=O)(=O)O)c3cc(S(=O)(=O)O)cc(S(=O)(=O)O)c23)cc1NC(=O)c1cccc(NC(=O)Nc2cccc(C(=O)Nc3cc(C(=O)Nc4ccc(S(=O)(=O)O)c5cc(S(=O)(=O)O)cc(S(=O)(=O)O)c45)ccc3C)c2)c1 [suramin],"pIC50 on the response triggered by α,β-meATP","P2X receptors [4]; 0.1 µM α,β-meATP (~EC75)",4.51 ± 0.03 and 4.5
same,pIC50 on the response triggered by ATP,P2X receptors [4],4.09 ± 0.03 and 4.1
same,pIC50 for human P2X3 receptors,human P2X3 receptors,approximately 4.8
